SMILES strings stand for the structures. In brackets after ≈: the same amount, converted by molar mass.

The test system of the assay is MCF-7 (Human breast cancer). The experiment in a line: MTT test on MCF-7 cells. Conditions: MCF7, till 48 h. Type of assay: cell-based. How it is done: The in vitro anticancer activities of the synthesized compounds were conducted using different cancerous and non-cancerous cell lines viz B16-F0 (Mouse melanoma), mouse Ehrlich Ascites Carcinoma (EAC), MCF-7 (Human breast cancer), MCF-10A (Human breast epithelial cells), and NIH/3T3 (Mouse fibroblast cells). All cell lines were procured from the National Centre for Cell Science, Pune, India. The procured cells were cultured in a six-well culture plate with Dulbecco’s Modified Eagle’s Medium (DMEM) supplemented with 10% fetal bovine serum in a humid CO2 incubator with 5% carbon dioxide at 37 °C.
The anti-cancer effect and cytotoxicity of both 3-MBTSc and 4-NBTSc compounds were evaluated against different cancerous (MCF-7, EAC, B16-F0 cells) and noncancerous cells (MCF-10A, NIH-3T3 cells) using MTT test. In brief, the stock solutions of both the tested compounds were prepared by dissolving 1 mg of each compound in 1 mL of DMSO separately. Then, four different concentrations (5, 10, 12, and 20 µg/mL) of both compounds were used during the test along with the negative control. Also, 10 μg/mL of doxorubicin (Dox) was used as the positive control during the experiment. Both untreated and treated cells were incubated for next 24 and 48 h. Then, all the steps during the whole experiment were carried out by our earlier reported procedure. Later, the absorbance values were measured by an ELISA reader (Biorad, Hercules, CA, USA) at 570 nm wavelength using secondary wavelength as a reference at 620 nm and the percentages of cell viability was calculated using the following formula [59, 60, 61]. Cell viability (%)= Mean absorbance of treated cells/Mean absorbance of untreated cells × 100
Based on the cell viability data, the IC50 values of both compounds were calculated on different cancer cells by plotting their corresponding dose-responsive graphs.
The obtained data were statistically analyzed. The descriptive analysis was done and the IC50 values were calculated by fitting the sigmoidal dose responsive graph using GraphPad Prism (GraphPad Software, Inc., La Jolla, CA, USA). […]

As for `COc1cccc2c1C(=O)c1c(O)c3c(c(O)c1C2=O)C[C@@](O)(C(=O)CO)C[C@@H]3O[C@H]1C[C@H](N)[C@H](O)[C@H](C)O1` [DOX, doxorubicin, reference compound], the IC50 was 3.162 ± 0.018 µg/mL (≈ 5.82 µM).

The record behind these values is PMC8533299, “Synthesis, In Silico Study, and Anti-Cancer Activity of Thiosemicarbazone Derivatives” (Biomedicines, 2021).
